# Measurements reported in ChEMBL document CHEMBL1155554, “(2R,3R,7Z)-2-Aminotetradec-7-ene-1,3-diol, a new amino alcohol from the caribbean sponge Haliclona vansoesti” (J Nat Prod, 2000).
# Experiment: Toxicity in brine shrimp
# Format: organism-based
# Settings: artemia, in vivo; read-out: LD50 (the source's name)
structure (smiles),measurement,value
CCCCCC/C=C\CCC[C@@H](O)[C@H](N)CO,LC50,9 µg/mL
